This passage reports IC50 results from patent US20240208968A1, “ALPHA V BETA 6 AND ALPHA V BETA 1 INTEGRIN INHIBITORS AND USES THEREOF” (DiCE Molecules SV, Inc., priority 2021, published 2024).

One assay deals with αvβ1 (Homo sapiens, UniProt P05556+P06756). As to the kind of experiment: Solid Phase Integrin αvβ1 Assay. The format is binding. The method, then:
(§1) The compounds exemplified in this document were tested for their ability to inhibit αvβ1 and αvβ6 in below described solid phase integrin assays.
Solid Phase Integrin αvβ1 Assay
96-well microtiter plates (4 HBX Immulon; Thermo Fisher Scientific, Waltham, MA) were coated with 100 μL/well of 1 μg/mL recombinant TGFb1-LAP in TBS at 4° C., overnight. The coating solution was removed, and plates were blocked with 200 μL/well of blocking and binding buffer (2% BSA/TBST, 1 mM MnCl2) at room temperature for 1 hr. Blocking buffer was removed and 50 μL of binding buffer and testing compounds were added. 50 μL of diluted αvβ1 (0.2 ug/mL in binding buffer) was added to wells (100 μL/well total) for and plates incubated for 90 min at room temperature. Wells were washed thrice with washing buffer (TBS, 0.05% Tween, 1 mM MnCl2) and plates were incubated with 100 μL/well of a 1:12500 dilution of streptavidin-horseradish peroxidase conjugate (Thermo Fisher Scientific) in binding buffer for 20 min at room temperature. Bound protein was detected using the substrate TMB. The IC50 values for testing compounds were calculated by Levenberg-Marquardt four parameter fitting logistics.

Another assay has as its target αvβ6 (Homo sapiens, UniProt P06756+P18564). Briefly: Solid Phase Integrin αvβ6 Assay. It is filed as binding. As for the experimental part: as §1
Solid Phase Integrin αvβ6 Assay
96-well microtiter plates (4 HBX Immulon; Thermo Fisher Scientific, Waltham, MA) were coated with 100 μL/well of 1 μg/mL recombinant TGFb1-LAP in TBS at 4° C., overnight. The coating solution was removed, and plates were blocked with 200 μL/well of blocking and binding buffer (2% BSA/TBST, 1 mM MnCl2) at room temperature for 1 hr. Blocking buffer was removed and 50 uL of binding buffer and testing compounds were added. 50 μL of diluted αvβ6 (0.2 μg/mL in binding buffer) was added to wells (100 uL/well total) and plates incubated for 1 hr at room temperature. Wells were washed thrice with washing buffer (TBS, 0.05% Tween, 1 mM MnCl2) and plates were incubated with 100 μL/well of a 1:12500) dilution of streptavidin-horseradish peroxidase conjugate (Thermo Fisher Scientific) in binding buffer for 20 min at room temperature. Bound protein was detected using the substrate TMB. The IC50 values for testing compounds were calculated by Levenberg-Marquardt four parameter fitting logistics.

pIC50: −log10 of the molar value. Where a name gives a salt, the structure may show the parent alone.

αvβ1, sequence (P06756 31-992 limits assumed): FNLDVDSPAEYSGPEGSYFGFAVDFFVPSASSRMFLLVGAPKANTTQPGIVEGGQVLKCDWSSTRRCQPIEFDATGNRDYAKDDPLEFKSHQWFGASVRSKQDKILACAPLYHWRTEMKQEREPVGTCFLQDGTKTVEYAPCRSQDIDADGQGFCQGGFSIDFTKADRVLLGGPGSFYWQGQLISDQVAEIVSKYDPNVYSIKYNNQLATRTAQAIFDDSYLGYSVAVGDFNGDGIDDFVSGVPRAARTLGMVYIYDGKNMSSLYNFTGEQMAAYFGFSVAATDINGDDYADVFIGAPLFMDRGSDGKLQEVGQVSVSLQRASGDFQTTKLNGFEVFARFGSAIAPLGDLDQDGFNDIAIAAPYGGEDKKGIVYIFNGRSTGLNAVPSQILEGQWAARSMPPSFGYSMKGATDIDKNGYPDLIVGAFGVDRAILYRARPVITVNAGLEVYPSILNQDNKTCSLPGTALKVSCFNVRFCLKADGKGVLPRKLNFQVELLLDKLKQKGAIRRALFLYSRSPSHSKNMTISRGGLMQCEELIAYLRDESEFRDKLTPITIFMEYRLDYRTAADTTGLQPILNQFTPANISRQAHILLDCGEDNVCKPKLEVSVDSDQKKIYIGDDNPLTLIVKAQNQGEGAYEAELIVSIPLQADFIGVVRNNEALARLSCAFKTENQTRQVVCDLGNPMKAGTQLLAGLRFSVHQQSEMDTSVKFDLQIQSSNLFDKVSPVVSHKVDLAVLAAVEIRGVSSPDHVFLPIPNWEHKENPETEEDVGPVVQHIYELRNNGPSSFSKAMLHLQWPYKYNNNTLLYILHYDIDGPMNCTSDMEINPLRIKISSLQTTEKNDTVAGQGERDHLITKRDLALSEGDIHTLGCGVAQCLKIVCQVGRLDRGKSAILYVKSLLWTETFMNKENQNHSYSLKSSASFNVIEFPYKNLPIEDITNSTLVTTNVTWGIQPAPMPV
αvβ1, sequence (P05556 21-728 limits assumed): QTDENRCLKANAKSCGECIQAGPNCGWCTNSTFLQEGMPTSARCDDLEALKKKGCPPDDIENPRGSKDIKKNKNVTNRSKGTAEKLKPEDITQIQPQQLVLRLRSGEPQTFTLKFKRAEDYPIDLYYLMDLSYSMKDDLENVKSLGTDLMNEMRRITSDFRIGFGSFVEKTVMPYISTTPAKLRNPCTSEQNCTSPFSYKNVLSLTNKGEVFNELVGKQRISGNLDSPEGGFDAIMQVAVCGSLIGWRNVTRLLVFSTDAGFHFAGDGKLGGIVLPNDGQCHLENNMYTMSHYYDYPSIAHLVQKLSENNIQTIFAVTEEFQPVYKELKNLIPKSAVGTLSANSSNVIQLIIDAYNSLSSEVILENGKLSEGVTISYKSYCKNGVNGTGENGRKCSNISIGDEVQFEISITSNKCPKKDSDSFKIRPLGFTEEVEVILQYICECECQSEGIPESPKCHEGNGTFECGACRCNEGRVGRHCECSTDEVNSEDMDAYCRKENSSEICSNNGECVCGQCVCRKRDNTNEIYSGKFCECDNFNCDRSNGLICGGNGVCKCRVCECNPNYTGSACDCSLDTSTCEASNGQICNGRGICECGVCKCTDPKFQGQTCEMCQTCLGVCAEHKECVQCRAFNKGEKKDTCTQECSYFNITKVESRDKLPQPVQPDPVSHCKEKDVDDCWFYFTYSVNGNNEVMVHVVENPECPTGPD
αvβ6, sequence (P06756 31-992 limits assumed): as the sequence (P06756 31-992 limits assumed) above
αvβ6, sequence (P18564 22-707 limits assumed): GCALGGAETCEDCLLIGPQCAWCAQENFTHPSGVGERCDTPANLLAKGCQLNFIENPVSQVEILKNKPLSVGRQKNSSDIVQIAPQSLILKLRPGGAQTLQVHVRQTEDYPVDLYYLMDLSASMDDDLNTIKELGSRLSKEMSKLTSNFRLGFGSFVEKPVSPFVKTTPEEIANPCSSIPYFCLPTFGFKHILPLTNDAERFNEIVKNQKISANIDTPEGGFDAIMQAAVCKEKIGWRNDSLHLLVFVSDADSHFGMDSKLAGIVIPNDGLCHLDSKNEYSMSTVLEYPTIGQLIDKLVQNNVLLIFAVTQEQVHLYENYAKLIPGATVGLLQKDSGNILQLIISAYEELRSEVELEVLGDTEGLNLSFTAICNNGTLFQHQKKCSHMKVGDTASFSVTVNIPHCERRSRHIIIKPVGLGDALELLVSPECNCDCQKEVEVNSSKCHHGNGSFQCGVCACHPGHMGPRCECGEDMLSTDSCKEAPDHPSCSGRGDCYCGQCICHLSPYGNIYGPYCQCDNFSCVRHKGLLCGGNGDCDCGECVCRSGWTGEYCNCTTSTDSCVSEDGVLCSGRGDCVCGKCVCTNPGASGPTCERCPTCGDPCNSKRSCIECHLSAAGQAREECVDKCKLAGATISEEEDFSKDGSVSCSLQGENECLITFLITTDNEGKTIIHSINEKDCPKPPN

As for `O=C(O)C[C@@H](NC(=O)[C@@H]1CCCN(CCCc2ccc3c(n2)NCCC3)C1)c1ccc2ccccc2c1` [Compound 206, (R)-3-(naphthalen-2-yl)-3-((R)-1-(3-(5,6,7,8-tetrahydro-1,8-naphthyridin-2-yl)propyl)piperidine-3-carboxamido)propanoic acid hydrochloride], the pIC50 on αvβ1 and on αvβ6 was more than 7.00 throughout.

As for `O=C(O)C[C@H](NC(=O)[C@@H]1CCCN(CCCc2ccc3c(n2)NCCC3)C1)c1ccc2ccccc2c1` [Compound 207, (S)-3-(naphthalen-2-yl)-3-((R)-1-(3-(5,6,7,8-tetrahydro-1,8-naphthyridin-2-yl)propyl)piperidine-3-carboxamido)propanoic acid hydrochloride], the pIC50 on αvβ1 and against αvβ6 was 6.00 to 7.00 in each case.

Regarding `O=C(O)C[C@@H](NC(=O)[C@@H]1CCCN(CCCc2ccc3c(n2)NCCC3)C1)c1cc(F)cc(C(F)(F)F)c1` [Compound 208-A, 3-(3-fluoro-5-(trifluoromethyl)phenyl)-3-((R)-1-(3-(5,6,7,8-tetrahydro-1,8-naphthyridin-2-yl)propyl)piperidine-3-carboxamido)propanoic acid], the pIC50 at αvβ1 and against αvβ6 was more than 7.00 each time.

As for `O=C(O)C[C@H](NC(=O)[C@@H]1CCCN(CCCc2ccc3c(n2)NCCC3)C1)c1cc(F)cc(C(F)(F)F)c1` [Compound 208-B, 3-(3-fluoro-5-(trifluoromethyl)phenyl)-3-((R)-1-(3-(5,6,7,8-tetrahydro-1,8-naphthyridin-2-yl)propyl)piperidine-3-carboxamido)propanoic acid], the pIC50 is less than 6.00 against αvβ1 and 6.00 to 7.00 on αvβ6.

For `O=C(O)C[C@H](NC(=O)[C@@H]1CCCN(CCCc2ccc3c(n2)NCCC3)C1)c1cccc(Oc2ccccc2)c1` [Compound 209-A, 3-(3-phenoxyphenyl)-3-((R)-1-(3-(5,6,7,8-tetrahydro-1,8-naphthyridin-2-yl)propyl)piperidine-3-carboxamido)propanoic acid], the pIC50 at αvβ1 and against αvβ6 was more than 7.00 each time.

Consider `O=C(O)C[C@@H](NC(=O)[C@@H]1CCCN(CCCc2ccc3c(n2)NCCC3)C1)c1cccc(Oc2ccccc2)c1` [Compound 209-B, 3-(3-phenoxyphenyl)-3-((R)-1-(3-(5,6,7,8-tetrahydro-1,8-naphthyridin-2-yl)propyl)piperidine-3-carboxamido)propanoic acid], for which the pIC50 was less than 6.00 against αvβ1 and 6.00 to 7.00 against αvβ6.

Consider `COc1ccc(C(C)C)c(C(CC(=O)O)NC(=O)[C@@H]2CCCN(CCCc3ccc4c(n3)NCCC4)C2)c1` (stereo partly drawn) [Compound 210, 3-(2-isopropyl-5-methoxyphenyl)-3-((R)-1-(3-(5,6,7,8-tetrahydro-1,8-naphthyridin-2-yl)propyl)piperidine-3-carboxamido)propanoic acid hydrochloride], for which the pIC50 against αvβ1 and against αvβ6 was 6.00 to 7.00 throughout.

For `O=C(O)C[C@H](NC(=O)[C@@H]1CCCN(CCCc2ccc3c(n2)NCCC3)C1)c1cccc2c1CCC2` [Compound 211-A, 3-(2,3-dihydro-1H-inden-4-yl)-3-((R)-1-(3-(5,6,7,8-tetrahydro-1,8-naphthyridin-2-yl)propyl)piperidine-3-carboxamido)propanoic acid], the negative logarithm of the IC50 (pIC50) against αvβ1 and against αvβ6 was more than 7.00 throughout.

With `O=C(O)C[C@@H](NC(=O)[C@@H]1CCCN(CCCc2ccc3c(n2)NCCC3)C1)c1cccc2c1CCC2` [Compound 211-B, 3-(2,3-dihydro-1H-inden-4-yl)-3-((R)-1-(3-(5,6,7,8-tetrahydro-1,8-naphthyridin-2-yl)propyl)piperidine-3-carboxamido)propanoic acid], the pIC50 was less than 6.00 against αvβ1 and 6.00 to 7.00 at αvβ6.

In the case of `O=C(O)C[C@H](NC(=O)[C@@H]1CCCN(CCCc2ccc3c(n2)NCCC3)C1)c1cccc2c1CCCC2` [Compound 212-A, 3-((R)-1-(3-(5,6,7,8-tetrahydro-1,8-naphthyridin-2-yl)propyl)piperidine-3-carboxamido)-3-(5,6,7,8-tetrahydronaphthalen-1-yl)propanoic acid], the negative logarithm of the IC50 (pIC50) against αvβ1 and at αvβ6 was less than 6.00 throughout.

Turning to `O=C(O)C[C@@H](NC(=O)[C@@H]1CCCN(CCCc2ccc3c(n2)NCCC3)C1)c1cccc2c1CCCC2` [Compound 212-B, 3-((R)-1-(3-(5,6,7,8-tetrahydro-1,8-naphthyridin-2-yl)propyl)piperidine-3-carboxamido)-3-(5,6,7,8-tetrahydronaphthalen-1-yl)propanoic acid], the pIC50 at αvβ1 was 6.00 to 7.00; on αvβ6, more than 7.00.

In the case of `O=C(O)CC(NC(=O)[C@@H]1CCCN(CCCc2ccc3c(n2)NCCC3)C1)c1ccc2c(c1)CCO2` (stereo partly drawn) [Compound 213, 3-(2,3-dihydrobenzofuran-5-yl)-3-((R)-1-(3-(5,6,7,8-tetrahydro-1,8-naphthyridin-2-yl)propyl)piperidine-3-carboxamido)propanoic acid hydrochloride], the negative logarithm of the IC50 (pIC50) against αvβ1 and on αvβ6 was more than 7.00 throughout.

`O=C(O)C[C@H](NC(=O)[C@@H]1CCCN(CCCc2ccc3c(n2)NCCC3)C1)c1ccc2c(c1)OCO2` [Compound 214, (S)-3-(benzo[d][1,3]dioxol-5-yl)-3-((R)-1-(3-(5,6,7,8-tetrahydro-1,8-naphthyridin-2-yl)propyl)piperidine-3-carboxamido)propanoic acid]: the negative logarithm of the IC50 (pIC50) against αvβ1 and at αvβ6 was more than 7.00 throughout.

As to `O=C(O)C[C@H](NC(=O)[C@@H]1CCCN(CCCc2ccc3c(n2)NCCC3)C1)c1ccc2nccnc2c1` [Compound 215-A, 3-(quinoxalin-6-yl)-3-((R)-1-(3-(5,6,7,8-tetrahydro-1,8-naphthyridin-2-yl)propyl)piperidine-3-carboxamido)propanoic acid], the pIC50 at αvβ1 and at αvβ6 was more than 7.00 throughout.

Regarding `O=C(O)C[C@@H](NC(=O)[C@@H]1CCCN(CCCc2ccc3c(n2)NCCC3)C1)c1ccc2nccnc2c1` [Compound 215-B, 3-(quinoxalin-6-yl)-3-((R)-1-(3-(5,6,7,8-tetrahydro-1,8-naphthyridin-2-yl)propyl)piperidine-3-carboxamido)propanoic acid], the pIC50 at αvβ1 and on αvβ6 was more than 7.00 in each case.

Regarding `O=C(O)C[C@H](NC(=O)[C@@H]1CCCN(CCCc2ccc3c(n2)NCCC3)C1)c1cccc2c1CCCO2` [Compound 216-A, 3-(chroman-5-yl)-3-((R)-1-(3-(5,6,7,8-tetrahydro-1,8-naphthyridin-2-yl)propyl)piperidine-3-carboxamido)propanoic acid], the results for the pIC50 at αvβ1 and against αvβ6 were 6.00 to 7.00 and more than 7.00, respectively.

In the case of `O=C(O)C[C@@H](NC(=O)[C@@H]1CCCN(CCCc2ccc3c(n2)NCCC3)C1)c1cccc2c1CCCO2` [Compound 216-B, 3-(chroman-5-yl)-3-((R)-1-(3-(5,6,7,8-tetrahydro-1,8-naphthyridin-2-yl)propyl)piperidine-3-carboxamido)propanoic acid], the pIC50 against αvβ1 and at αvβ6 was less than 6.00 throughout.

With `O=C(O)CC(NC(=O)[C@@H]1CCCN(CCCc2ccc3c(n2)NCCC3)C1)c1ccc2c(c1)OCC2` (stereo partly drawn) [Compound 217, 3-(2,3-dihydrobenzofuran-6-yl)-3-((R)-1-(3-(5,6,7,8-tetrahydro-1,8-naphthyridin-2-yl)propyl)piperidine-3-carboxamido)propanoic acid hydrochloride], the pIC50 on αvβ1 and against αvβ6 was more than 7.00 each time.

In the case of `O=C(O)CC(NC(=O)[C@@H]1CCCN(CCCc2ccc3c(n2)NCCC3)C1)c1cccc2c1OCO2` (stereo partly drawn) [Compound 218, 3-(benzo[d][1,3]dioxol-4-yl-3-((R)-1-(3-(5,6,7,8-tetrahydro-1,8-naphthyridin-2-yl)propyl)piperidine-3-carboxamido)propanoic acid hydrochloride], the negative logarithm of the IC50 (pIC50) at αvβ1 and against αvβ6 was more than 7.00 each time.

As to `O=C(O)CC(NC(=O)[C@@H]1CCCN(CCCc2ccc3c(n2)NCCC3)C1)c1cccc2c1CCO2` (stereo partly drawn) [Compound 219, 3-(2,3-dihydrobenzofuran-4-yl)-3-((R)-1-(3-(5,6,7,8-tetrahydro-1,8-naphthyridin-2-yl)propyl)piperidine-3-carboxamido)propanoic acid hydrochloride], the pIC50 on αvβ1 and on αvβ6 was more than 7.00 throughout.

Turning to `O=C(O)C[C@H](NC(=O)[C@@H]1CCCN(CCCc2ccc3c(n2)NCCC3)C1)c1cc(Cl)cc(Cl)c1` [Compound 220, (S)-3-(3,5-dichlorophenyl)-3-((R)-1-(3-(5,6,7,8-tetrahydro-1,8-naphthyridin-2-yl)propyl)piperidine-3-carboxamido)propanoic acid], the pIC50 against αvβ1 and against αvβ6 was more than 7.00 throughout.

Broadly, the pIC50 is the negative decadic logarithm of the IC50, by convention in mol/L. A high value points to a small IC50.
